Entries after “also recorded” stand apart in the source; their conditions may differ. Read-outs that look alike come from different tables or passages of the source.
Assays:
neurologic WD patients = conditions: cited from earlier work
SHSY5Y cells = experiment: Cellular copper content (ICP-OES), SHSY5Y; assay type: cell-based, human; conditions: 750 μM copper, 250 μM albumin, 750 μM chelator, vs Cu-albumin alone
Description: (§1) Afterwards, cells were trypsinized and counted.

EA.hy926 cells [1] = experiment: Cellular copper content (ICP-OES), EA.hy926; assay type: cell-based, human; conditions: EA.hy926; 750 μM copper, 250 μM albumin, 750 μM chelator; vs Cu-albumin alone
Description: as §1

HepG2 cells [2] = experiment: Cu-albumin cell toxicity, CellTiter-Glo, HepG2; assay type: cell-based, human; conditions: HepG2, 750 μM chelator
Procedure: (§2) SHSY5Y (human neuroblastoma), U87MG (human astrocytoma), EA.hy926 (human endothelium) and HepG2 (human hepatocellular carcinoma) cells were from ATCC (Wesel, Germany) and were cultured in Dulbecco's Modified Eagle Medium (DMEM) supplemented with 10% FCS (Biochrom, Berlin, Germany) and 1% antibiotic-antimycotic (Life Technologies, Carlsbad, USA). All cells were maintained at 37° C. in a humidified atmosphere with 5% CO2.

EA.hy926 cells [3] = experiment: Cu-albumin cell toxicity, CellTiter-Glo, EA.hy926; assay type: cell-based, human; conditions: EA.hy926, 750 μM chelator
Procedure: as §2

[4] = system: tight junction protein claudin-5; experiment: Immunocytochemistry staining of claudin-5 in PBCEC monolayers; assay type: cell-based, porcine; conditions: 250 μM copper and 83.3 μM albumin, 250 μM chelator
Procedure: Total copper was determined by ICP-MS/MS as previously described (Kopp, J. F., et al., J Trace Elem Med Biol, 2019. 54: p. 221-225). For the immunocytochemical staining of tight junction proteins, confluent PBCECs cultivated on Transwell® membrane inserts were processed as previously described ([…]., et al., Archives of Toxicology 2018. 92(2): p. 823-832). Briefly, PBCECs were fixed with formaldehyde and permeabilized using Triton X-100. After blocking of unspecific binding sites by albumin, the cells were incubated with the either anti-claudin 5 or anti-ZO-1 antibody (Zytomed Systems GmbH, Berlin, Germany). Following a second blocking step, the cells were treated with an Alexa Fluor® 488 conjugated secondary antibody (Invitrogen, Molecular Probes Inc., Eugene, USA). Hoechst 33258 (Merck, Darmstadt, Germany) was used to stain cell nuclei. Subsequently, membranes were cut out of the inserts and mounted in Aqua Poly/Mount (Polysciences Inc., Washington, USA). After a solidification period of 24 hours, the samples were evaluated using a DM6 B fluorescence microscope by Leica Microsystems CMS GmbH (Wetzlar, Germany) in combination with the Leica Application Suite X.

PBCEC monolayers [5] = experiment: Electron microscopy of tight junctions of PBCECs; assay type: cell-based, porcine; conditions: copper-treated PBCECs, electron micrographs
Procedure: Electron microscopy of PBCECS grown on Transwell® inserts was performed as previously described (Ye, D., K. A. Dawson, and I. Lynch, Analyst, 2015. 140(1): p. 83-97) with minor modifications. Briefly, after fixation with 2.5% glutaraldehyde, cell monolayers were post-fixed with 1% osmium tetroxide for 30 min and dehydrated by ethanol.

[6] = system: HepG2, EA.hy926, U87MG and SHSY5Y cells; experiment: Toxicity of the chelator itself in a copper-free setting, CellTiter-Glo
Procedure: as §2

[7] = in vivo; cited from earlier work
Atp7b^−/− rats = experiment: Chelator treatment of WD rats: copper in serum, urine and feces (ICP-OES); assay type: in vivo, rat
Procedure: Control Atp7b^+/- and WD Atp7b^-/- rats were fed ad libitum with normal chow (1314; 13.89 mg Cu/kg; Altromin Spezialfutter GmbH, […], Germany) and tap water. All rats were healthy at treatment start and presented no signs of acute liver damage (serum AST <200 U/L and serum bilirubin <0.5 mg/dl). […] Untreated Atp7b^+/- and Atp7b^-/- rats served as controls. Urine and feces were collected at 24-hour intervals for which rats were housed individually in metabolic cages for 4 days. After a two-day resting period off treatment in normal cages and group housing, rats were sacrificed for serum collection.

PBCEC monolayers [8] = experiment: Copper in the basolateral compartment of the Transwell PBCEC model (ICP-MS/MS); assay type: cell-based, porcine; conditions: 250 μM copper and 83.3 μM albumin, 250 μM chelator, after 48 h
Description: (§3) For transepithelial resistance (TEER) experiments (Srinivasan, B., et al., J Lab Autom, 2015. 20(2): p. 107-26), cryopreserved primary porcine brain capillary endothelial cells (PBCECs) were thawed and seeded either on rat tail collagen-coated 96-well plates for cytotoxicity testing using the Neutral red assay (Repetto, G., A. del Peso, and J. L. Zurita, Nat Protoc, 2008. 3(7): p. 1125-31) or Transwell® inserts (area: 1.12 cm^2, pore size: 0.4 μm: Corning, N.Y., USA) for barrier integrity studies. Cells were cultured for 48 hours in Earle's Medium 199 supplemented with 10% FCS, 50 U penicillin/mL, 50 μg/mL streptomycin, 100 μg/mL gentamycin and 0.7 mM I-glutamine and maintained at 37° C. in a humidified atmosphere with 5% CO2. […] TEER and capacitance values were continuously monitored over 48 h using a CellZscope device (nanoAnalytics, Münster, Germany). Only PBCEC monolayers with initial TEER values >600Ωcm^2 and capacitance values between 0.45 and 0.6 μF/cm^2 were used for permeability studies (Bornhorst, J., et al., J Biol Chem, 2012. 287(21): p. 17140-51). The barrier integrity was calculated by normalizing the TEER values to the respective start values.

[9] = system: HepG2, EA.hy926, U87MG and SHSY5Y cells; experiment: Cellular copper content (ICP-OES), all cell lines; assay type: cell-based, human; conditions: 750 μM copper, 250 μM albumin, 750 μM chelator, 24 h; vs Cu-albumin alone
Description: as §1

[10] = system: HepG2, EA.hy926, U87MG and SHSY5Y cells; experiment: Cu-albumin cell toxicity, CellTiter-Glo, all investigated cell lines; assay type: cell-based, human
Procedure: as §2

HepG2 cells [11] = experiment: Cellular copper content (ICP-OES), HepG2; assay type: cell-based, human; conditions: 750 μM copper, 250 μM albumin, 750 μM chelator, vs Cu-albumin alone
Description: as §1

[12] = system: HepG2, EA.hy926, U87MG and SHSY5Y cells; conditions: 750 μM copper, 250 μM albumin, 750 μM chelator
Procedure: 2×10^4 cells were seeded into each well of a 96-well plate and incubated overnight. […] Cell toxicity was either determined by CellTiter-Glo® assay (Promega, Madison, USA) or Trypan blue exclusion test.
Afterwards, cells were trypsinized and counted. Cell viability was determined by Trypan blue exclusion test.

EA.hy926 and U87MG cells = experiment: Electron microscopy of mitochondrial structure; assay type: cell-based, human; conditions: electron micrographs, co-treatment with chelator
Description: Electron microscopy of cells was done as previously described ([…]., et al., Cell Mol Gastroenterol Hepatol, 2018. 7(3): p. 571-596) on a 1200EX electron microscope (JEOL, […], Japan) at 60 kv. Pictures were taken with a […] digital camera (Olympus, Hamburg, Germany) and processed by the iTEM software package (analySIS FIVE, Olympus, Hamburg, Germany).

PBCEC monolayers [13] = experiment: TEER and capacitance of PBCEC monolayers (endothelial blood-brain barrier model); assay type: cell-based, porcine
Description: as §3

[14] = unit inferred; read-out: Kd (copper affinity); cited from earlier work

SMILES: [SH-].[SH-].[S]=[Mo]=[S] [TTM, tetrathiomolybdate]
- neurological worsening (neurologic WD patients; human, in vivo): hardly reported

SMILES: CC(C)(S)[C@@H](N)C(=O)O [DPA, (2S)-2-amino-3-methyl-3-sulfanylbutanoic acid, reference compound]
- cellular copper content (SHSY5Y cells): tendentiously lower copper content
- cellular copper content (EA.hy926 cells [1]): tendentiously lower copper content
- CellTiterGlo-assessed cell viability / Cu-albumin toxicity (HepG2 cells [2]): modest rescuing effect
- CellTiterGlo-assessed cell viability / Cu-albumin toxicity (EA.hy926 cells [3]): completely absent
- claudin-5 staining pattern / copper-induced gap formation [4]: could not prevent copper-induced gap formation; also recorded: did not prevent copper-induced gap formation
- loss of electron-dense protein complexes at the cell-cell borders (PBCEC monolayers [5]): not protected and not
- non-toxic concentrations ([6]; copper-free setting): up to 2 mM
- CellTiterGlo-assessed cell viability with chelator alone ([6]; without external Cu-albumin addition): not observed
- blood peak after application [7]: 1 to 3 h
- fecal copper excretion (Atp7b^−/− rats; during treatment): unchanged
- urinary copper excretion (Atp7b^−/− rats; during treatment, urine collected over 24 h): significantly increased; also recorded: significant increase
- serum copper levels (Atp7b^−/− rats; i.p. once daily for 4 consecutive days (ALXN1840 2.5 mg/kg bw, DPA 100 mg/kg bw), serum at sacrifice after resting period): elevated blood copper was not observed
- share of net copper intake found in the urine (Atp7b^−/− rats; upon DPA treatment, total net uptake 3.95 μmol/24 h): 10%
- copper found in the urine (Atp7b^−/− rats; upon DPA treatment, unpublished observation): 0.4 μmol/24 h
- copper in the basolateral compartment (copper influx) (PBCEC monolayers [8]): could not be avoided
- cellular copper content [9]: in none of the cell lines a significant de-coppering was noted; also recorded: did not change the amount of copper uptake
- CellTiterGlo-assessed cell viability / Cu-albumin toxicity ([10]; 750 μM chelator, 250 μM albumin, copper 250 to 2500 μM, 24 h): much less effective; also recorded: not significantly increased
- CellTiterGlo-assessed cell viability / Cu-albumin toxicity ([10]; low dose of chelator (250 μM)): no effect on cell viability
- cellular copper content (HepG2 cells [11]): highly similar cellular copper contents
- Trypan blue-assessed cell viability / copper-related cell toxicity [12]: could not be avoided
- Cu-albumin-induced alterations of mitochondrial structure (EA.hy926 and U87MG cells): no/minor effect; also recorded: no positive effect
- patients with dramatic symptom worsening (neurologic WD patients; shortly upon treatment onset): 19-52%
- neurological worsening (neurologic WD patients; treated patients): frequently occur
- transepithelial electrical resistance (TEER) (PBCEC monolayers [13]; 250 μM copper and 83.3 μM albumin, 250 μM chelator, 48 h): not able to prevent the copper-induced TEER loss; also recorded: reduction of the TEER comparable to Cu-albumin treatment alone
- capacitance values (PBCEC monolayers [13]; Cu-albumin treatment in the absence or presence of chelator): unaffected

SMILES: N[C@@H](Cc1c[nH]cn1)C(=O)O [histidine]
- Kd [14]: ~1 nM

Source: patent US20220387370A1, “METHODS OF REDUCING NEUROLOGICAL DAMAGE IN WILSON DISEASE PATIENTS” (priority 2019, published 2022)
